Legend:
[1] = biological target: T1, Athrobacter ureafaciens neuraminidase (Paenarthrobacter ureafaciens, UniProt Q5W7Q2); assay: Western blot analysis of covalent binding (biotinylation) of neuraminidase; settings: 200 μM, 4° C., ammonium acetate buffer 100 mM; bands of 88, 66 and 52 KDa
T1 sequence (Q5W7Q2 39-990): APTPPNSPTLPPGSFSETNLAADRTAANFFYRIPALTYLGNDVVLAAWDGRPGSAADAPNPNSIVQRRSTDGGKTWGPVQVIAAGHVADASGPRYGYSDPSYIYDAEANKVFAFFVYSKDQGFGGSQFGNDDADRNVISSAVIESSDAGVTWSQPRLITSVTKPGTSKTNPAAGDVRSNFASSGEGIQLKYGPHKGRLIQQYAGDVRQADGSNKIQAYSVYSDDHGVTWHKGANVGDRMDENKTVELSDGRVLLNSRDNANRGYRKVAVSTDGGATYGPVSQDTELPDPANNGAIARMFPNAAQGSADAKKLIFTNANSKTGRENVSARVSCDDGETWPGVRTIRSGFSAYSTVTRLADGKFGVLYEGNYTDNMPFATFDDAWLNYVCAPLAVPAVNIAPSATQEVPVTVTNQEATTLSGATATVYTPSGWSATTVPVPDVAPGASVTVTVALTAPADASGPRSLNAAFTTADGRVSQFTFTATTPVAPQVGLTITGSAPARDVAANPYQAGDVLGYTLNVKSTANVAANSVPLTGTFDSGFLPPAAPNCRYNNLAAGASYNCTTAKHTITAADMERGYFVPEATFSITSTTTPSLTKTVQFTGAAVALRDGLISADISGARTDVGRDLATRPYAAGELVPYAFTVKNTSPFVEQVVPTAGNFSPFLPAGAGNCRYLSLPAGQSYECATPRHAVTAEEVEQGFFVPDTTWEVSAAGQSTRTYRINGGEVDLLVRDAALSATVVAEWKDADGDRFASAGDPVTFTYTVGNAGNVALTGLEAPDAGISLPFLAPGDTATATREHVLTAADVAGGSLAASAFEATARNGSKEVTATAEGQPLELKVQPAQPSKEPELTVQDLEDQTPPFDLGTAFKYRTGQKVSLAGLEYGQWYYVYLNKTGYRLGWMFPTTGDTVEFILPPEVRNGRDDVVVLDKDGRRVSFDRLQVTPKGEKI

[2] = biological target: T2, influenza A virus neuraminidase (Influenza A virus, UniProt P03470); assay: biochemical; format: biochemical, influenza A virus (A/WSN/33)
T2 construct: pre-incubated for 45 minutes with influenza A virus (A/WSN/33; 9×10^3 PFU); host or cells: whole virus particles (PFU-titred virus stock)
T2 sequence (P03470 whole entry): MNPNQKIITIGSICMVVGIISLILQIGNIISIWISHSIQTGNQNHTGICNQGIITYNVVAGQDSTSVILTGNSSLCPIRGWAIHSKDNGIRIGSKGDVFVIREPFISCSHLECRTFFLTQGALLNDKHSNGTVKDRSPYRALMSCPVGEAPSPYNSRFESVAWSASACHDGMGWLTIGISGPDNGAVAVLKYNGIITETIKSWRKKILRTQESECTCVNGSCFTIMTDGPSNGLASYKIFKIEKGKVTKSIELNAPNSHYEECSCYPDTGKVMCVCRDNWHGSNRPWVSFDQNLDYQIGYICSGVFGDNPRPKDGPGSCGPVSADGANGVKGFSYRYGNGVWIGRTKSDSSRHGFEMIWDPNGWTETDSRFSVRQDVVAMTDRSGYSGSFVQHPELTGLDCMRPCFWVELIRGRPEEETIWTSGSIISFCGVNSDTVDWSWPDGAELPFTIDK

[3] = biological target: Bovine serum albumin (BSA) (Bos taurus, UniProt P02769); assay: Western blot analysis, negative control protein; format: binding; settings: BSA 0.65 μg/μl with 200 μM, 4° C.
Chain of Bovine serum albumin (BSA) (P02769 25-607): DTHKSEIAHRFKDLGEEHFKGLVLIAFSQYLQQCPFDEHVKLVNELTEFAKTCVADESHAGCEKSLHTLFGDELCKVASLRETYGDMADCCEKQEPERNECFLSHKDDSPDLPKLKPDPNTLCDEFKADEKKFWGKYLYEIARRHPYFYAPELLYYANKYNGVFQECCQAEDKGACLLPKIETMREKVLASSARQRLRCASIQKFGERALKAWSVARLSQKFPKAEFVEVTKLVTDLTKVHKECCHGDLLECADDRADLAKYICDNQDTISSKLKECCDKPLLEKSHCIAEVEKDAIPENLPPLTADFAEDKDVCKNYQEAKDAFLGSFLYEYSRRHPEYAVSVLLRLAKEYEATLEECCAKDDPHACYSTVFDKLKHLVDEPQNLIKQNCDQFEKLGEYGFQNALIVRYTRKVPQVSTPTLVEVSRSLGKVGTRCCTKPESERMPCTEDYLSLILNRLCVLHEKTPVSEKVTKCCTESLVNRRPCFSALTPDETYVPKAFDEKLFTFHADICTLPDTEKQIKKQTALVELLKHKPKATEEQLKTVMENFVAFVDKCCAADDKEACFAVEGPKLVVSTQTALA

[4] = biological target: T1, Athrobacter ureafaciens neuraminidase; format: biochemical; settings: pH 6.5
[5] = system: influenza A virus; assay: ELISA capturing experiment with neuraminidase active site blocked by zanamivir; format: binding; settings: compound 1 667 μM, zanamivir 67 μM pre-incubation 45 minutes, 9×10^3 PFU, optical density
[6] = system: influenza A virus (A/WSN/33); assay: ELISA virus capture on streptavidin coated plate; format: binding
[7] = biological target: Vibro cholerae neuraminidase (Vibrio cholerae serotype O1, UniProt P0C6E9); assay: biochemical; format: biochemical; settings: for inhibitory effect on neuraminidase activity: pH 6.5
Chain of Vibro cholerae neuraminidase (P0C6E9 25-781): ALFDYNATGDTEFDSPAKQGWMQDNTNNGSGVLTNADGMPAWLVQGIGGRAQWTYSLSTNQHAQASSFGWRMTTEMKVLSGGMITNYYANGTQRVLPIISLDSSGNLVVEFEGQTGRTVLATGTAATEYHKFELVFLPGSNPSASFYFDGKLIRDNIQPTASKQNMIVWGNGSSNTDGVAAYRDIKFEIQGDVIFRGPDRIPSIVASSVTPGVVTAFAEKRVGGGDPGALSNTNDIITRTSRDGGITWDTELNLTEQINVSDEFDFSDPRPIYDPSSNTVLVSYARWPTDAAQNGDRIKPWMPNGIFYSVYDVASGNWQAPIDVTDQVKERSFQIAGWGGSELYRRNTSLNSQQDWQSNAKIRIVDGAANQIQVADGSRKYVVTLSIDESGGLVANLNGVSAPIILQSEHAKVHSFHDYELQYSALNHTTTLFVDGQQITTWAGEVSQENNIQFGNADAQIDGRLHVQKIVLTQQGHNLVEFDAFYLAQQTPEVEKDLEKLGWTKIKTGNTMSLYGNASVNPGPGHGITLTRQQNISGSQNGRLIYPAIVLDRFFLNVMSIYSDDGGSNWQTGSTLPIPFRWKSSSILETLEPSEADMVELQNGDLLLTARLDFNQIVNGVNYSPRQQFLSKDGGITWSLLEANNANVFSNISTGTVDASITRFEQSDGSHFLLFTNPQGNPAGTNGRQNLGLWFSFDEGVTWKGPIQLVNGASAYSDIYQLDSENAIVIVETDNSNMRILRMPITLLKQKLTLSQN

[8] = biological target: Clostridium perfringens neuraminidase (Clostridium perfringens, UniProt P10481); format: biochemical; settings: pH 6.5
Chain of Clostridium perfringens neuraminidase (P10481 whole entry, looked up): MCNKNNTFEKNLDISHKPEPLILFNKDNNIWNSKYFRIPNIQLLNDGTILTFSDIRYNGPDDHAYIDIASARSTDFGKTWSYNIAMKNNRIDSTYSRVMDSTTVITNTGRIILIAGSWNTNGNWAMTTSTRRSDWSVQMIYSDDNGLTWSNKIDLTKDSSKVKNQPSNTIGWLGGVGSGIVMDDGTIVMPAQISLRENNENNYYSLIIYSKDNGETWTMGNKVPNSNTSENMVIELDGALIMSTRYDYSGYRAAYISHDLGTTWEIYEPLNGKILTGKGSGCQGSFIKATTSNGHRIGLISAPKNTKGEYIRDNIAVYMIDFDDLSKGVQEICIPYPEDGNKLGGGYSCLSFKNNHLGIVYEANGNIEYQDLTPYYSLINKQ

[9] = system: Japanese encephalitis virus (JEV); assay: ELISA selective capturing experiment; format: binding; settings: mixture of influenza A virus and JEV; anti-JEV antibody

SMILES | bands on the PVDF membrane (biotinylated neuraminidase isoenzymes) [1] | IC50 [2] [µM] | inhibitory effect on neuraminidase activity ([2]; pH 6.5) | bands on the PVDF membrane [3] | inhibitory effect on neuraminidase activity [4] | capture of influenza A virus relative to influenza A virus pretreated with zanamivir [5] [folds] | capture of influenza A virus on plate wells ([6]; 5 nmol on streptavidin coated plate, virus 3.8×10^2-970×10^2 PFU, anti-Flu A antibody detection) | capture of influenza A virus from a mixture with JEV ([6]; mixture of influenza A virus and JEV, anti-Flu A antibody) | IC50 [7] [µM] | inhibitory effect on neuraminidase activity [7] | inhibitory effect on neuraminidase activity [8] | capture of JEV from a mixture with influenza A virus [9]
CC(=O)N[C@@H]1C(O)CC(Oc2ccc(NC(=O)CCC(=O)NCCCCCCNC(=O)CCCCC3SCC4NC(=O)NC43)cc2C(F)F)(C(=O)O)OC1[C@H](O)[C@H](O)CO (stereo partly drawn) [compound 1] | three bands | 1700 | significant inhibitory effect | no band was observed | significant inhibitory effect | 14 | successfully captured influenza A virus | captured and detected | 530 | significant inhibitory effect | significant inhibitory effect | not JEV
CC(=O)N[C@H]1[C@H]([C@H](O)[C@H](O)CO)OC(C(=O)O)=C[C@@H]1N=C(N)N [zanamivir, reference compound] | – | – | – | – | only weak inhibitory effect | – | – | – | – | only weak inhibitory effect | only weak inhibitory effect | –
